Measurements taken from patent publication US11672959B2, “Expandable member systems and methods for drug delivery” (Intersect ENT, Inc., priority 2019, dated 2023).

How the values were obtained:
[1] = plasma MF concentration after balloon expansions in sheep frontal sinus ostia; assay type: in vivo
[2] = in vitro release rates for expandable members having varying amounts of crystalline mometasone furoate (FIG. 4); assay type: physicochemical
Description: FIG. 4 is a graph comparing the in vitro release rates for expandable members having varying amounts of crystalline mometasone furoate. The amount of crystalline and amorphous drug provided in the drug layer will generally vary depending on the active agent employed, target tissue being treated, therapeutic drug level desired in the target tissue, and/or the drug release profile desired. For example, the ratio of amorphous to crystalline drug in the drug layer can be about 1:3, 1:2, 1:1, 2:1, or 3:1. A higher amorphous to crystalline drug ratio can lead to quicker tissue absorption due to the higher solubility of amorphous drug. In turn, a higher crystalline to amorphous drug ratio can lead to longer residence time of the drug on tissue. […] Thus, a combination of amorphous and crystalline drug in the drug layer can provide immediate release of the active agent to begin treatment of a nose, ear, or throat condition, as well as sustained release of the active agent into the target tissue, as illustrated by the moderate in vitro release rates for drug layers subjected to solvent vapor annealing (SVA) in FIG. 4. In some variations, the drug layer is formed to include about 60% of the active agent as drug crystals. In one variation, the drug layer is formed to include mometasone furoate, where about 60% of the mometasone furoate is in crystalline form. The ratio of crystalline to amorphous drug in the drug layer can be adjusted during the drug layering process onto the expandable member, e.g., during the solvent vapor annealing process, as further described below, or during sterilization.

[3] = tissue concentration of mometasone furoate after balloon expansion in Eustachian tubes (LCMS); assay type: in vivo, domestic sheep; conditions: sheep, Eustachian tube mucosa, 1500 μg balloon expanded to 12 atm, read-out: maximum mometasone furoate tissue concentration
Procedure: The Eustachian tubes of eight domestic sheep were accessed transnasally using balloon catheters having drug layers containing 1500 μg of mometasone furoate. The balloon catheters were made as described in Example 1. A singe balloon catheter was expanded to 12 atm of pressure to deliver the mometasone furoate crystals to Eustachian tube tissue and to dilate each contralateral Eustachian tube at its proximal opening. The animals were sacrificed at either 7 days or 30 days after balloon expansion, and mucosa from each Eustachian tube collected and frozen. Mometasone furoate concentration was then quantified using liquid chromatography mass spectrometry (LCMS).

[4] = MF released from drug layered balloon on inflation in sheep frontal sinus ostia; assay type: in vivo
Procedure: (§1) The amount of mometasone furoate transferred to the ostia (total MF released) was measured after inflation of balloons having a drug layer including the listed dose of mometasone furoate drug crystals and poly(ethylene glycol) and polysorbate as the excipients.
Expandable members were made by spray coating 6 mm×20 mm semi-compliant balloons with a drug layer formulation. The drug layer formulation included either a 1500 μg or 3000 μg dose of mometasone furoate, poly(ethylene glycol), and a polysorbate. The drug layered balloons were then exposed in an acetone solvent vapor for 30 minutes.
(§2) In this Example, drug layered balloons were made according to Example 1 and used to dilate sheep frontal ostia.

[5] = tissue MF concentration after balloon expansion in sheep frontal sinus ostia; conditions: for concentration at 30 days / concentration at 7 days / concentration at 14 days / concentration at 1 hour: sheep; for concentration at 1 hour: Approx. 1 hour after inflation
Procedure: as §1, §2

[6] = frontal sinus ostia tissue, 3000 μg, Average Tissue MF Concentrations, Frontal Sinus Ostia, MF Dose 3000 μg, Study Arm 1, 2
[7] = nasal passage tissue, 3000 μg, Average Tissue MF Concentrations, Nasal Passage, MF Dose 3000 μg, Study Arm 1, 2

**Q.** With `C[C@@H]1C[C@H]2[C@@H]3CCC4=CC(=O)C=C[C@]4(C)[C@@]3(Cl)[C@@H](O)C[C@]2(C)[C@@]1(OC(=O)c1ccco1)C(=O)CCl` [MF, mometasone furoate] as the compound, how does the “MF Concentration Plasma” value ([1]; MF Dose 1500 μg, 30 days, analytical range 20.0-1000.0 pg/mL) read?
**A.** The value was “BLQ (Below Limit of Quantitation (≤20.0 pg/mL))”.

**Q.** And the plasma levels ([1]; MF dose 1500 μg, 30 days post the two expansions)?
**A.** Its plasma levels is “below the limit of quantitation”.

**Q.** And the “in vitro release rate” value ([2]; drug layer contains the active agent only as crystals (100% crystals))?
**A.** The value was “slowest”.

**Q.** What about the “in vitro release rate” value ([2]; drug layer contains the active agent only in amorphous form (0% crystals)) of the same compound?
**A.** The value was “fastest”.

**Q.** What about the “in vitro release rates” value ([2]; drug layers subjected to solvent vapor annealing (SVA), amorphous and crystalline drug) of the same compound?
**A.** Its value is “moderate”.

**Q.** What about the concentration at 7 days ([3]; 7 days) of the same compound?
**A.** Its concentration at 7 days is 47000 ng/g.

**Q.** What about the concentration at 30 days ([3]; 30 days) of the same compound?
**A.** The concentration at 30 days was 200 ng/g.

**Q.** And the “Total MF Released” value ([4]; Dose 1500 μg, 36.4% drug crystals, crystal size 78.7 μm, PEG and polysorbate excipients)?
**A.** The value was 350 µg.

**Q.** What about the “Total MF Released” value ([4]; Dose 1500 μg, 62.5% drug crystals, crystal size 128.1 μm) of the same compound?
**A.** Its value is 478 µg.

**Q.** And the “Total MF Released” value ([4]; Dose 3000 μg, 60.4% drug crystals, crystal size 91.1 μm)?
**A.** The value was 1778 µg.

**Q.** And the “Total MF Released” value ([4]; Dose 3000 μg, 67.4% drug crystals, crystal size 132.6 μm)?
**A.** Its value is 1058 µg.

**Q.** And the “MF Release (% MF Dose)” value ([4]; MF Dose 1500 μg, 1st inflation, Study Arm 2 (treatment))?
**A.** Its value is 35 % MF Dose.

**Q.** What about the “Average MF Release per Inflation” value ([4]; MF Dose 1500 μg, 1st inflation, Study Arm 2 (treatment), n=4) of the same compound?
**A.** Its value is 524 µg.

**Q.** What about the “MF Release (% MF Dose)” value ([4]; MF Dose 1500 μg, 2nd inflation, Study Arm 1 (treatment)) of the same compound?
**A.** The value was 12 % MF Dose.

**Q.** And the “Average MF Release per Inflation” value ([4]; MF Dose 1500 μg, 2nd inflation, Study Arm 1 (treatment), n=4)?
**A.** Its value is 176 µg.

**Q.** What about the “Average MF Release per Inflation” value ([4]; MF Dose 1500 μg, Average over first two inflations) of the same compound?
**A.** The value was 350 µg.

**Q.** What about the “Total MF Released” value ([4]; MF Dose 1500 μg, Table 7) of the same compound?
**A.** The value was 350 µg.

**Q.** And the “Average % MF Release per Inflation” value ([4]; MF Dose 3000 μg, Study Arm 1, two expansions)?
**A.** The value was 30%.

**Q.** What about the “Average MF Release per Inflation” value ([4]; MF Dose 3000 μg, Study Arm 1, two expansions, n=32 devices) of the same compound?
**A.** Its value is 889 µg.

**Q.** And the “Average % MF Release per Inflation” value ([4]; MF Dose 3000 μg, Study Arm 2 (bloody sheep frontal sinus ostia))?
**A.** The value was 28%.

**Q.** And the “Average MF Release per Inflation” value ([4]; MF Dose 3000 μg, Study Arm 2 (bloody sheep frontal sinus ostia), n=4 devices)?
**A.** Its value is 854 µg.

**Q.** And the “average tissue MF concentrations for the frontal sinus ostia relative to therapeutic levels” value ([5]; MF Dose 3000 μg, all time points)?
**A.** The value was “at or above therapeutic levels”.

**Q.** And the concentration at 30 days ([5]; frontal sinus ostia tissue, 1500 μg, Average 30 day tissue MF Concentration in Sinus Ostia, 36.4% drug crystals, crystal size 78.7 μm, 30 days)?
**A.** The concentration at 30 days was 5000 ng/g.

**Q.** What about the concentration at 30 days ([5]; frontal sinus ostia tissue, 1500 μg, Average 30 day tissue MF Concentration in Sinus Ostia, 62.5% drug crystals, crystal size 128.1 μm, 30 days) of the same compound?
**A.** The concentration at 30 days was 1000 ng/g.

**Q.** What about the concentration at 30 days ([5]; frontal sinus ostia tissue, 1500 μg, MF Concentration Frontal Sinus Ostia Tissue, MF Dose 1500 μg, explant timepoint 30 days, two expansions) of the same compound?
**A.** The concentration at 30 days was 5000 ng/g.

**Q.** What about the concentration at 30 days ([5]; frontal sinus ostia tissue, 1500 μg, average tissue MF concentrations for the frontal sinus ostia, MF dose 1500 μg, 30 days, compared with therapeutic level) of the same compound?
**A.** The concentration at 30 days was over 100 ng/g.

**Q.** And the concentration at 30 days ([5]; frontal sinus ostia tissue, 1500 μg, mometasone furoate concentrations in tissue at 30 days, crystals sized less than 80 μm, less than 60% of the drug layer containing drug crystals)?
**A.** Its concentration at 30 days is about 5000 ng/g.

**Q.** And the concentration at 30 days ([5]; frontal sinus ostia tissue, 3000 μg, Average 30 day tissue MF Concentration in Sinus Ostia, 60.4% drug crystals, crystal size 91.1 μm, 30 days)?
**A.** The concentration at 30 days was 100 ng/g.

**Q.** What about the concentration at 30 days ([5]; frontal sinus ostia tissue, 3000 μg, Average 30 day tissue MF Concentration in Sinus Ostia, 67.4% drug crystals, crystal size 132.6 μm, 30 days) of the same compound?
**A.** Its concentration at 30 days is 2000 ng/g.

**Q.** And the concentration at 7 days [5, 6]?
**A.** The concentration at 7 days was 9890 ng/g.

**Q.** And the concentration at 14 days [5, 6]?
**A.** Its concentration at 14 days is 1250 ng/g.

**Q.** What about the concentration at 30 days ([5]; frontal sinus ostia tissue, 3000 μg, Average Tissue MF Concentrations, Frontal Sinus Ostia, MF Dose 3000 μg, Study Arm 1, 2, 30 days) of the same compound?
**A.** The concentration at 30 days was 100 ng/g.

**Q.** And the concentration at 1 hour [5, 6]?
**A.** Its concentration at 1 hour is 142000 ng/g.

**Q.** And the concentration at 30 days ([5]; in vivo, 30 day tissue concentrations (in sheep frontal sinus ostia))?
**A.** The concentration at 30 days was at least 100 ng/g.

**Q.** What about the concentration at 7 days [5, 7] of the same compound?
**A.** The concentration at 7 days was 60 ng/g.

**Q.** And the concentration at 14 days [5, 7]?
**A.** Its concentration at 14 days is 20 ng/g.

**Q.** And the concentration at 30 days ([5]; nasal passage tissue, 3000 μg, Average Tissue MF Concentrations, Nasal Passage, MF Dose 3000 μg, Study Arm 1, 2, 30 days)?
**A.** The concentration at 30 days was 1380 ng/g.

**Q.** And the concentration at 1 hour [5, 7]?
**A.** Its concentration at 1 hour is 4730 ng/g.
